Measured values reported in ChEMBL document CHEMBL5532738, “Chiral Me-2-arachidonoyl Glycerols: The First Potent Endocannabinoid Glyceride Templates with Stability to COX-2” (ACS Med Chem Lett, 2024).

Columns and labels:
Format in all cases: functional, cell-based
[1] = target: Cannabinoid receptor 1 (Rattus norvegicus) (UniProt P20272); experiment: Agonist activity at rat CB1 receptor stably expressed in HEK293 cells assessed as inhibition of forskolin-stimulated cAMP accumulation incubated for 5 mins by Lance Ultra cAMP assay relative to control; settings: filed as agonist
[2] = target: Cannabinoid receptor 2 (Mus musculus, UniProt P47936); experiment: Agonist activity at mouse CB2 receptor stably expressed in HEK293 cells assessed as inhibition of forskolin-stimulated cAMP accumulation incubated for 5 mins by Lance Ultra cAMP assay
[3] = target: Cannabinoid receptor 1 (Rattus norvegicus, UniProt P20272); experiment: Agonist activity at rat CB1 receptor stably expressed in HEK293 cells assessed as inhibition of forskolin-stimulated cAMP accumulation incubated for 5 mins by Lance Ultra cAMP assay
[4] = target: Cannabinoid receptor 2 (Mus musculus) (UniProt P47936); experiment: Agonist activity at mouse CB2 receptor stably expressed in HEK293 cells assessed as inhibition of forskolin-stimulated cAMP accumulation incubated for 5 mins by Lance Ultra cAMP assay relative to control
Cannabinoid receptor 2 (Mus musculus), sequence (P47936 whole entry): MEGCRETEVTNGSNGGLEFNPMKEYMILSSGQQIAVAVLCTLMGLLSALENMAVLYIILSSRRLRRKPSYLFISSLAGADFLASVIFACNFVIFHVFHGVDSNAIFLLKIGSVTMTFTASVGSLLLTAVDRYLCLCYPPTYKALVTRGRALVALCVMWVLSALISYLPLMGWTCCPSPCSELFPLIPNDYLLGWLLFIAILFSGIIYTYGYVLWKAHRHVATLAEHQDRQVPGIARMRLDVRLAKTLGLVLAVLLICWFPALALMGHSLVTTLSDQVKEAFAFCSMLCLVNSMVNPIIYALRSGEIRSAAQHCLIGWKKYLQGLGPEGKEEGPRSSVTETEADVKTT

Cannabinoid receptor 1, sequence (P20272 whole entry): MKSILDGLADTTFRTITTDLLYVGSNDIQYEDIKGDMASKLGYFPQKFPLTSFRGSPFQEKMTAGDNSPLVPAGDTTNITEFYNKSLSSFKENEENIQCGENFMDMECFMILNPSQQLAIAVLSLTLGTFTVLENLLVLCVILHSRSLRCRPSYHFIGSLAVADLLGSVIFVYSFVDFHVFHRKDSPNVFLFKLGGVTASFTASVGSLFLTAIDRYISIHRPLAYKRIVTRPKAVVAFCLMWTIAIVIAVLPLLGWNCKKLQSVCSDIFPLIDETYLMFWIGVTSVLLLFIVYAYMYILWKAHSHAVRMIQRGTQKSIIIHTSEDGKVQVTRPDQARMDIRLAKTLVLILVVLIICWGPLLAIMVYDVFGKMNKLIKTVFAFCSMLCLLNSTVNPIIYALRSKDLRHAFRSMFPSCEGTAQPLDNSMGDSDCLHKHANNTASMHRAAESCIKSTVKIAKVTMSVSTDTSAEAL
Cannabinoid receptor 1 (Rattus norvegicus), sequence (P20272 whole entry): as above
Cannabinoid receptor 2, sequence (P47936 whole entry): as the sequence (P47936 whole entry) above

SMILES	Emax [1] [%]	EC50 [2] [nM]	EC50 [3] [nM]	Emax ([4]; filed as agonist) [%]	Emax [4] [%]
CCCCC/C=C\[C@H](C)/C=C\C/C=C\C/C=C\CCCC(=O)OC(CO)CO	51.2	53	17	50.1	–
CCCCC/C=C\C/C=C\C/C=C\C/C=C\CCCC(=O)OC(CO)CO [2-ARACHIDONOYLGLYCEROL]	47.7	18	–	–	35.2
CCCCC/C=C\C/C=C\C/C=C\[C@H](C)/C=C\CCCC(=O)OC(CO)CO	48.7	6	23.1	–	24.6
CCCCC/C=C\[C@@H](C)/C=C\C/C=C\C/C=C\CCCC(=O)OC(CO)CO	51.6	50	7	42.8	–
CCCCCCC(C)(C)c1ccc([C@@H]2C[C@H](O)CC[C@H]2CCCO)c(O)c1 [CP-55940]	67.1	7	–	54.4	–
CCCCC/C=C\C/C=C\C/C=C\[C@@H](C)/C=C\CCCC(=O)OC(CO)CO	74.8	–	34.6	–	< 1
